Reference: ChEMBL document CHEMBL1201862, “PubChem BioAssay data set” (2004)
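96-well plates; 48 h exposure; 5 concentrations. Endpoints by linear interpolation between flanking doses. Not reached: highest tested concentration assigned. GI50: concentration for 50% inhibition of growth.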 Activity calls are given as the source filed them. Cut-off read from the data, not from the text of the source: active = GI50 up to about 1.1 µM and inactive = higher.

Legend:
Assay in all cases: inhibition of tumour cell growth, NCI panel, 48 h
[1] = test system: CCRF-CEM
[2] = test system: COLO 205
[3] = test system: DU-145
[4] = test system: EKVX
[5] = test system: HCT-15
[6] = test system: LOX IMVI
[7] = test system: MDA-MB-231
[8] = test system: MDA-MB-435
[9] = test system: MOLT-4
[10] = test system: NCI-H23
[11] = test system: OVCAR-4
[12] = test system: PC-3
[13] = test system: RXF 393
[14] = test system: SK-MEL-28
[15] = test system: T47D
[16] = test system: UACC-62
[17] = test system: OVCAR-3
[18] = test system: SF-295

## COc1ccc(CC2C(=O)NC(C)C(=O)N(C)C3Cc4ccc(cc4)Oc4cc(ccc4O)CC(C(=O)NC(C)C(=O)NC(C)C(=O)N2C)N(C)C3=O)cc1 (stereo unspecified)
[1]
  GI50: 0.0175 µM (active)
[2]
  GI50: 0.0175 µM (active)
[3]
  GI50: < 0.0001 µM (active)
[4]
  GI50: 0.0175 µM (active)
[5]
  GI50: 0.851 µM
[6]
  GI50: 0.0409 µM (active)
[7]
  GI50: < 0.0001 µM (active)
[8]
  GI50: < 0.0001 µM (active)
[9]
  GI50: 0.0175 µM (active)
[10]
  GI50: 0.0175 µM (active)
[11]
  GI50: 0.0175 µM (active)
[12]
  GI50: < 0.0001 µM (active)
[13]
  GI50: 0.0175 µM (active)
[14]
  GI50: 0.0175 µM (active)
[15]
  GI50: < 0.0001 µM (active)
[16]
  GI50: 0.0175 µM (active)

## NC1CCCCC1.O=C(O)C1(P(=O)(O)O)CC1
[1]
  GI50: > 100 µM (inactive)
[2]
  GI50: > 100 µM (inactive)
[4]
  GI50: > 100 µM (inactive)
[5]
  GI50: > 100 µM
[9]
  GI50: > 100 µM (inactive)
[10]
  GI50: > 100 µM (inactive)
[17]
  GI50: > 100 µM (inactive)
[11]
  GI50: > 100 µM (inactive)
[13]
  GI50: > 100 µM (inactive)
[18]
  GI50: > 100 µM (inactive)
[14]
  GI50: > 100 µM (inactive)
[16]
  GI50: > 100 µM (inactive)

## CC(=O)OC1COC(n2c(=S)n(-c3ccc(C)cc3)c(=O)c3ccccc32)C(OC(C)=O)C1OC(C)=O (stereo unspecified)
[2]
  GI50: > 100 µM (inactive)
[4]
  GI50: > 100 µM (inactive)
[5]
  GI50: > 100 µM
[6]
  GI50: > 100 µM (inactive)
[9]
  GI50: > 100 µM (inactive)
[10]
  GI50: > 100 µM (inactive)
[17]
  GI50: > 100 µM (inactive)
[11]
  GI50: > 100 µM (inactive)
[13]
  GI50: 67.3 µM (inactive)
[18]
  GI50: 85.5 µM (inactive)
[14]
  GI50: > 100 µM (inactive)
[16]
  GI50: > 100 µM (inactive)

## O=S(=O)(N/N=C/c1cccc(/C=N/NS(=O)(=O)c2ccccc2)c1)c1ccccc1
[1]
  GI50: 76.4 µM (inactive)
[2]
  GI50: 38.3 µM (inactive)
[4]
  GI50: 77.6 µM (inactive)
[5]
  GI50: 80.5 µM
[6]
  GI50: 30 µM (inactive)
[9]
  GI50: 84.5 µM (inactive)
[10]
  GI50: 87.1 µM (inactive)
[17]
  GI50: 54.8 µM (inactive)
[11]
  GI50: 77.8 µM (inactive)
[13]
  GI50: 51.6 µM (inactive)
[18]
  GI50: 28 µM (inactive)
[14]
  GI50: 88.7 µM (inactive)
[16]
  GI50: 85.9 µM (inactive)

## Cc1ccccc1NC(=O)C(=O)Cc1nc2ccccc2s1
[1]
  GI50: > 100 µM (inactive)
[2]
  GI50: > 100 µM (inactive)
[5]
  GI50: > 100 µM
[6]
  GI50: > 100 µM (inactive)
[9]
  GI50: > 100 µM (inactive)
[10]
  GI50: > 100 µM (inactive)
[17]
  GI50: > 100 µM (inactive)
[11]
  GI50: > 100 µM (inactive)
[13]
  GI50: > 100 µM (inactive)
[18]
  GI50: > 100 µM (inactive)
[14]
  GI50: > 100 µM (inactive)

## Cc1[nH]c2ccccc2c1-c1n[nH]c(=O)c2ccccc12
[1]
  GI50: 22.9 µM (inactive)
[4]
  GI50: 17.9 µM (inactive)
[5]
  GI50: 5.33 µM
[9]
  GI50: 20.5 µM (inactive)
[10]
  GI50: 26 µM (inactive)
[17]
  GI50: 23.3 µM (inactive)
[11]
  GI50: 29.3 µM (inactive)
[13]
  GI50: 12.9 µM (inactive)
[18]
  GI50: 23.3 µM (inactive)
[14]
  GI50: 26.5 µM (inactive)
[16]
  GI50: 19.5 µM (inactive)

## CC(C)OC(=O)c1cccnc1/C=N/O
[1]
  GI50: > 100 µM (inactive)
[2]
  GI50: > 100 µM (inactive)
[4]
  GI50: > 100 µM (inactive)
[5]
  GI50: > 100 µM
[6]
  GI50: > 100 µM (inactive)
[9]
  GI50: > 100 µM (inactive)
[10]
  GI50: > 100 µM (inactive)
[17]
  GI50: > 100 µM (inactive)
[18]
  GI50: 88.5 µM (inactive)
[16]
  GI50: > 100 µM (inactive)

## Cc1[nH]c2ccccc2c1C1Cc2ccccc2N1C(=O)/C(Cl)=C/c1ccccc1 (stereo unspecified)
[1]
  GI50: > 73.1 µM (inactive)
[2]
  GI50: > 100 µM (inactive)
[4]
  GI50: > 48.9 µM (inactive)
[5]
  GI50: > 100 µM
[6]
  GI50: > 100 µM (inactive)
[9]
  GI50: 15.2 µM (inactive)
[10]
  GI50: 48.4 µM (inactive)
[17]
  GI50: > 100 µM (inactive)
[11]
  GI50: > 88.1 µM (inactive)
[13]
  GI50: 7.83 µM (inactive)
[18]
  GI50: > 31 µM (inactive)
[14]
  GI50: > 100 µM (inactive)
[16]
  GI50: > 100 µM (inactive)

## CCOC(=O)/C=C1\CCCC12OCCO2
[1]
  GI50: > 100 µM (inactive)
[2]
  GI50: > 100 µM (inactive)
[5]
  GI50: > 100 µM
[9]
  GI50: 30.5 µM (inactive)
[17]
  GI50: 28 µM (inactive)
[11]
  GI50: > 100 µM (inactive)
[13]
  GI50: > 100 µM (inactive)
[14]
  GI50: > 100 µM (inactive)
[16]
  GI50: > 100 µM (inactive)

## COc1cc(/C=C2/C(=O)N(C(=O)OCC(C)C)C(Cc3cc(OC)c(OC)c(C)c3OC)C(=O)N2Cc2ccccc2)c(OC)c(C)c1OC (stereo unspecified)
[1]
  GI50: 21.3 µM (inactive)
[2]
  GI50: 11.2 µM (inactive)
[4]
  GI50: 72.1 µM (inactive)
[6]
  GI50: > 100 µM (inactive)
[9]
  GI50: 7.35 µM (inactive)
[10]
  GI50: > 100 µM (inactive)
[17]
  GI50: 79.4 µM (inactive)
[11]
  GI50: > 100 µM (inactive)
[13]
  GI50: > 100 µM (inactive)
[18]
  GI50: 62.7 µM (inactive)
[14]
  GI50: > 100 µM (inactive)
[16]
  GI50: > 100 µM (inactive)

## N#C/C(=C1\SC(C(N)=O)=C(N)N1c1ccccc1)c1nc2ccccc2[nH]1
[1]
  GI50: > 100 µM (inactive)
[2]
  GI50: 59 µM (inactive)
[4]
  GI50: > 100 µM (inactive)
[5]
  GI50: > 100 µM
[6]
  GI50: 32.2 µM (inactive)
[9]
  GI50: > 100 µM (inactive)
[10]
  GI50: > 100 µM (inactive)
[17]
  GI50: > 100 µM (inactive)
[11]
  GI50: > 100 µM (inactive)
[18]
  GI50: > 100 µM (inactive)
[14]
  GI50: > 100 µM (inactive)
[16]
  GI50: > 100 µM (inactive)
